# Experimental data: the NIST ThermoML archive (doi:10.1021/je800248w)
# Numbers after ± are expanded uncertainties.
# Columns and labels:
# [1] = excess molar enthalpy (molar enthalpy of mixing); xn = mol fraction of the nth substance listed; details: 101 kPa, Liquid, Calvet calorimetry
# [2] = molar heat capacity at constant pressure; xn = mol fraction of the nth substance listed; details: 101.3 kPa, Liquid, Small sample (50 mg) DSC
compound,measurement,setting,value
CCOS(=O)(=O)[O-].CCn1cc[n+](C)c1 [1-ethyl-3-methylimidazolium ethyl sulfate] + O,excess molar enthalpy,"[1]; 313.14 K, x2 = 0.2496",-0.109 ± 0.00454 kcal/mol
same,excess molar enthalpy,"[1]; 313.14 K, x2 = 0.2497",-0.11 ± 0.00454 kcal/mol
same,excess molar enthalpy,"[1]; 313.14 K, x2 = 0.4936",-0.183 ± 0.00741 kcal/mol
same,excess molar enthalpy,"[1]; 313.14 K, x2 = 0.4951",-0.184 ± 0.00741 kcal/mol
same,excess molar enthalpy,"[1]; 313.14 K, x2 = 0.7491",-0.231 ± 0.00932 kcal/mol
same,excess molar enthalpy,"[1]; 313.14 K, x2 = 0.7495",-0.233 ± 0.00956 kcal/mol
same,excess molar enthalpy,"[1]; 323.12 K, x2 = 0.2425",-0.116 ± 0.00478 kcal/mol
same,excess molar enthalpy,"[1]; 323.12 K, x2 = 0.2486",-0.114 ± 0.00478 kcal/mol
same,excess molar enthalpy,"[1]; 323.12 K, x2 = 0.4979",-0.189 ± 0.00765 kcal/mol
same,excess molar enthalpy,"[1]; 323.12 K, x2 = 0.4991",-0.189 ± 0.00765 kcal/mol
same,excess molar enthalpy,"[1]; 323.12 K, x2 = 0.7464",-0.221 ± 0.00908 kcal/mol
same,excess molar enthalpy,"[1]; 323.12 K, x2 = 0.7481",-0.226 ± 0.00932 kcal/mol
same,excess molar enthalpy,"[1]; 333.11 K, x2 = 0.2483",-0.119 ± 0.00478 kcal/mol
same,excess molar enthalpy,"[1]; 333.11 K, x2 = 0.2496",-0.121 ± 0.00502 kcal/mol
same,excess molar enthalpy,"[1]; 333.11 K, x2 = 0.496",-0.191 ± 0.00789 kcal/mol
same,excess molar enthalpy,"[1]; 333.11 K, x2 = 0.4974",-0.189 ± 0.00765 kcal/mol
same,excess molar enthalpy,"[1]; 333.11 K, x2 = 0.7476",-0.218 ± 0.00884 kcal/mol
same,excess molar enthalpy,"[1]; 333.11 K, x2 = 0.7484",-0.218 ± 0.00884 kcal/mol
same,excess molar enthalpy,"[1]; 348.12 K, x2 = 0.2492",-0.125 ± 0.00502 kcal/mol
same,excess molar enthalpy,"[1]; 348.12 K, x2 = 0.2499",-0.125 ± 0.00502 kcal/mol
same,excess molar enthalpy,"[1]; 348.12 K, x2 = 0.4948",-0.191 ± 0.00789 kcal/mol
same,excess molar enthalpy,"[1]; 348.12 K, x2 = 0.498",-0.191 ± 0.00789 kcal/mol
same,excess molar enthalpy,"[1]; 348.12 K, x2 = 0.7477",-0.199 ± 0.00813 kcal/mol
same,excess molar enthalpy,"[1]; 348.12 K, x2 = 0.7483",-0.199 ± 0.00813 kcal/mol
same,molar heat capacity at constant pressure,"[2]; 283.15 K, x2 = 0",365 ± 30 J/K/mol
same,molar heat capacity at constant pressure,"[2]; 283.15 K, x2 = 0.212",294 ± 24 J/K/mol
same,molar heat capacity at constant pressure,"[2]; 283.15 K, x2 = 0.4079",235 ± 19 J/K/mol
same,molar heat capacity at constant pressure,"[2]; 283.15 K, x2 = 0.5925",179 ± 15 J/K/mol
same,molar heat capacity at constant pressure,"[2]; 283.15 K, x2 = 0.766",142 ± 12 J/K/mol
same,molar heat capacity at constant pressure,"[2]; 283.15 K, x2 = 0.8495",115 ± 9 J/K/mol
same,molar heat capacity at constant pressure,"[2]; 283.15 K, x2 = 0.9282",95 ± 8 J/K/mol
same,molar heat capacity at constant pressure,"[2]; 283.15 K, x2 = 0.9684",83 ± 7 J/K/mol
same,molar heat capacity at constant pressure,"[2]; 283.15 K, x2 = 0.9916",78 ± 6 J/K/mol
same,molar heat capacity at constant pressure,"[2]; 293.15 K, x2 = 0",371 ± 30 J/K/mol
same,molar heat capacity at constant pressure,"[2]; 293.15 K, x2 = 0.212",297 ± 24 J/K/mol
same,molar heat capacity at constant pressure,"[2]; 293.15 K, x2 = 0.4079",239 ± 19 J/K/mol
same,molar heat capacity at constant pressure,"[2]; 293.15 K, x2 = 0.5925",184 ± 15 J/K/mol
same,molar heat capacity at constant pressure,"[2]; 293.15 K, x2 = 0.766",145 ± 12 J/K/mol
same,molar heat capacity at constant pressure,"[2]; 293.15 K, x2 = 0.8495",118 ± 10 J/K/mol
same,molar heat capacity at constant pressure,"[2]; 293.15 K, x2 = 0.9282",96 ± 8 J/K/mol
same,molar heat capacity at constant pressure,"[2]; 293.15 K, x2 = 0.9684",85 ± 7 J/K/mol
same,molar heat capacity at constant pressure,"[2]; 293.15 K, x2 = 0.9916",78 ± 6 J/K/mol
same,molar heat capacity at constant pressure,"[2]; 303.15 K, x2 = 0",380 ± 31 J/K/mol
same,molar heat capacity at constant pressure,"[2]; 303.15 K, x2 = 0.212",304 ± 25 J/K/mol
same,molar heat capacity at constant pressure,"[2]; 303.15 K, x2 = 0.4079",245 ± 20 J/K/mol
same,molar heat capacity at constant pressure,"[2]; 303.15 K, x2 = 0.5925",190 ± 15 J/K/mol
same,molar heat capacity at constant pressure,"[2]; 303.15 K, x2 = 0.766",149 ± 12 J/K/mol
same,molar heat capacity at constant pressure,"[2]; 303.15 K, x2 = 0.8495",122 ± 10 J/K/mol
same,molar heat capacity at constant pressure,"[2]; 303.15 K, x2 = 0.9282",98 ± 8 J/K/mol
same,molar heat capacity at constant pressure,"[2]; 303.15 K, x2 = 0.9684",86 ± 7 J/K/mol
same,molar heat capacity at constant pressure,"[2]; 303.15 K, x2 = 0.9916",79 ± 6 J/K/mol
same,molar heat capacity at constant pressure,"[2]; 313.15 K, x2 = 0",386 ± 31 J/K/mol
same,molar heat capacity at constant pressure,"[2]; 313.15 K, x2 = 0.212",309 ± 25 J/K/mol
same,molar heat capacity at constant pressure,"[2]; 313.15 K, x2 = 0.4079",249 ± 20 J/K/mol
same,molar heat capacity at constant pressure,"[2]; 313.15 K, x2 = 0.5925",193 ± 16 J/K/mol
same,molar heat capacity at constant pressure,"[2]; 313.15 K, x2 = 0.766",152 ± 12 J/K/mol
same,molar heat capacity at constant pressure,"[2]; 313.15 K, x2 = 0.8495",124 ± 10 J/K/mol
same,molar heat capacity at constant pressure,"[2]; 313.15 K, x2 = 0.9282",100 ± 8 J/K/mol
same,molar heat capacity at constant pressure,"[2]; 313.15 K, x2 = 0.9684",87 ± 7 J/K/mol
same,molar heat capacity at constant pressure,"[2]; 313.15 K, x2 = 0.9916",79 ± 6 J/K/mol
same,molar heat capacity at constant pressure,"[2]; 323.15 K, x2 = 0",392 ± 32 J/K/mol
same,molar heat capacity at constant pressure,"[2]; 323.15 K, x2 = 0.212",314 ± 26 J/K/mol
same,molar heat capacity at constant pressure,"[2]; 323.15 K, x2 = 0.4079",253 ± 21 J/K/mol
same,molar heat capacity at constant pressure,"[2]; 323.15 K, x2 = 0.5925",197 ± 16 J/K/mol
same,molar heat capacity at constant pressure,"[2]; 323.15 K, x2 = 0.766",154 ± 13 J/K/mol
same,molar heat capacity at constant pressure,"[2]; 323.15 K, x2 = 0.8495",126 ± 10 J/K/mol
same,molar heat capacity at constant pressure,"[2]; 323.15 K, x2 = 0.9282",101 ± 8 J/K/mol
same,molar heat capacity at constant pressure,"[2]; 323.15 K, x2 = 0.9684",88 ± 7 J/K/mol
same,molar heat capacity at constant pressure,"[2]; 323.15 K, x2 = 0.9916",79 ± 6 J/K/mol
same,molar heat capacity at constant pressure,"[2]; 333.15 K, x2 = 0",397 ± 32 J/K/mol
same,molar heat capacity at constant pressure,"[2]; 333.15 K, x2 = 0.212",319 ± 26 J/K/mol
same,molar heat capacity at constant pressure,"[2]; 333.15 K, x2 = 0.4079",256 ± 21 J/K/mol
same,molar heat capacity at constant pressure,"[2]; 333.15 K, x2 = 0.5925",201 ± 16 J/K/mol
same,molar heat capacity at constant pressure,"[2]; 333.15 K, x2 = 0.766",157 ± 13 J/K/mol
same,molar heat capacity at constant pressure,"[2]; 333.15 K, x2 = 0.8495",127 ± 10 J/K/mol
same,molar heat capacity at constant pressure,"[2]; 333.15 K, x2 = 0.9282",102 ± 8 J/K/mol
same,molar heat capacity at constant pressure,"[2]; 333.15 K, x2 = 0.9684",88 ± 7 J/K/mol
same,molar heat capacity at constant pressure,"[2]; 333.15 K, x2 = 0.9916",80 ± 7 J/K/mol
same,molar heat capacity at constant pressure,"[2]; 343.15 K, x2 = 0",403 ± 33 J/K/mol
same,molar heat capacity at constant pressure,"[2]; 343.15 K, x2 = 0.212",324 ± 26 J/K/mol
same,molar heat capacity at constant pressure,"[2]; 343.15 K, x2 = 0.4079",260 ± 21 J/K/mol
same,molar heat capacity at constant pressure,"[2]; 343.15 K, x2 = 0.5925",204 ± 17 J/K/mol
same,molar heat capacity at constant pressure,"[2]; 343.15 K, x2 = 0.766",158 ± 13 J/K/mol
same,molar heat capacity at constant pressure,"[2]; 343.15 K, x2 = 0.8495",129 ± 10 J/K/mol
same,molar heat capacity at constant pressure,"[2]; 343.15 K, x2 = 0.9282",103 ± 8 J/K/mol
same,molar heat capacity at constant pressure,"[2]; 343.15 K, x2 = 0.9684",89 ± 7 J/K/mol
same,molar heat capacity at constant pressure,"[2]; 343.15 K, x2 = 0.9916",80 ± 7 J/K/mol
